Results reported in BigSolDB 2.1.

O=C(O)c1cc([N+](=O)[O-])cc([N+](=O)[O-])c1
solubility (mole fraction)
Conditions | 283.15 K | 288.15 K | 293.15 K | 298.15 K | 303.15 K | 308.15 K | 313.15 K | 318.15 K | 323.15 K
in acetonitrile | 0.00815 | 0.00958 | 0.011 | 0.0129 | 0.0148 | 0.0162 | 0.019 | 0.0218 | 0.0236
in ethanol | 0.0264 | 0.0306 | 0.0346 | 0.0396 | 0.0456 | 0.0524 | 0.0593 | 0.07 | 0.078
in ethyl acetate | 0.0349 | 0.0373 | 0.0399 | 0.0426 | 0.0458 | 0.0495 | 0.0533 | 0.0574 | 0.0627
in isobutanol | 0.00648 | 0.00862 | 0.0129 | 0.0171 | 0.0223 | 0.0265 | 0.031 | 0.0376 | 0.0466
in isopropanol | 0.014 | 0.0167 | 0.0194 | 0.0255 | 0.0315 | 0.0381 | 0.0459 | 0.0548 | 0.0661
in methanol | 0.0321 | 0.0399 | 0.0454 | 0.0502 | 0.059 | 0.0669 | 0.0767 | 0.0843 | 0.0943
in methyl acetate | 0.0378 | 0.0413 | 0.0456 | 0.0498 | 0.054 | 0.0582 | 0.0623 | 0.0664 | 0.0713
in n-butanol | 0.0138 | 0.0163 | 0.0214 | 0.0273 | 0.0329 | 0.0386 | 0.0458 | 0.0537 | 0.0622
in n-butyl acetate | 0.0257 | 0.0262 | 0.0281 | 0.0327 | 0.0341 | 0.04 | 0.0451 | 0.0504 | 0.0562
in n-pentanol | 0.0153 | 0.0173 | 0.0223 | 0.0273 | 0.0321 | 0.0379 | 0.0456 | 0.0531 | 0.0604
in n-propanol | 0.0173 | 0.019 | 0.0224 | 0.0274 | 0.0332 | 0.0397 | 0.0457 | 0.0549 | 0.065
in n-propyl acetate | 0.0281 | 0.0296 | 0.0318 | 0.0354 | 0.04 | 0.0443 | 0.0494 | 0.0548 | 0.0609
in sec-butanol | 0.0139 | 0.0159 | 0.0201 | 0.0263 | 0.0324 | 0.0414 | 0.0503 | 0.0628 | 0.0777
